Reference: publication PMC8811433 (The Journal of International Medical Research, 2022)

Molecular target: Lysine-specific demethylase 1 (LSD1) (Homo sapiens, UniProt O60341)
Test: in vitro LSD1 activity assay
Assay type: biochemical
Conditions: read-out: % inhibition at 1000 nM

inhibition at 1 µM: 78%
Compound: C=C1C(=O)O[C@H]2[C@H]1[C@H](OC(=O)/C(C)=C/CO)CC(=C)[C@@H]1C=C[C@@](C)(O)[C@H]21 [eupalinilide B]
